Measured values as given in US10301314B2, “Compounds and methods for the prevention and treatment of tumor metastasis and tumorigenesis” (The United States of America, as represented by the …, priority 2011, dated 2019).

Key:
[1] = system: PC3M reporter cell line stably expressing the PTB-GFP; assay: ATP quantitation assay (ATPLite); type: cell-based, human; conditions: Homo sapiens, PC-3M, Table 4, PC3M cells, 24 hrs incubation
Procedure: This follow-up assay was conducted to measure the effect of compounds on cell health by measuring ATP levels (ATPLite™). ATPLite™ is an ATP monitoring system based on firefly (Photinus pyralis) luciferase. The level of ATP in a metabolically active cell is a general marker for its viability. ATP levels are often reduced during necrosis or apoptosis. In this assay, the luciferase enzyme catalyzes the conversion of the added substrate D-luciferin to oxyluciferin and light with ATP. Thus, the emitted light is proportional to the ATP concentration. For this assay, the highly metastatic PC3M reporter cell line stably expressing the PTB-GFP was provided by Professor Sui Huang of Northwestern University. The media and cell culture reagents were purchased from Invitrogen (Carlsbad, Calif.), ATPLite™ came from PerkinElmer.

[2] = system: PC3M cell line that stably expresses GFP-PTB to mark PNCs; assay: High content assay for PNC detection (reduction of PNC prevalence); type: cell-based, human; conditions: Table 4, PC3M GFP-PTB cells, 16 hrs incubation; for IC50: Homo sapiens, PC-3M
Description: The quantitative output for this assay is the reduction of PNC prevalence. The PNC can be detected in living cells by the expression of a green fluorescent protein (GFP) tagged to the PNC localized protein, PTB. A PC3M cell line was used that stably expresses GFP-PTB to mark PNCs. This method eliminates the need for immunofluorescent staining.
The IN Cell Analyzer 1000 automated fluorescent imaging system (GE Healthcare, Piscataway, N.J.) was used for automated image acquisition. […] The instrument acquired images of each well in a 1536-well plate with a laser-based autofocus system. To score PNC prevalence in a high-content throughput, the Multi-Target Analysis (MTA) algorithm (GE Healthcare, Investigator v3.5) to identify individual cells and granules (PNCs) within these cells was used. The nucleus was segmented via a region growing method (50 μm^2 minimum area) with light shading and noise removal to allow “touching” nuclei to be separated. Granules in the nucleus (PNCs) were segmented using a multiscale top hat method, which measures granules of 1 to 2 μm in size and used a smart masking method to identify the boundaries of each segmented granule. The algorithm was optimized and validated using positive and negative controls (50 μM camptothecin and DMSO, respectively). In particular, the MTA algorithm allows for the identification of multiple subcellular compartments and organelles (or granules) within those compartments. In this instance, the algorithm's capability to identify objects within the same color channel that only differ in size or fluorescent intensity was utilized. Also, the algorithm allows for building complex hierarchical classification systems, using output measures within the algorithm to filter and define subpopulations. For this particular assay, PNC-positive cells were scored when 1 to 3 PNC granules were detected per nucleus. Cells that contained 0 granules were scored as PNC negative, and cells with >3 granules were assumed to be false positives (very few cells have more than 3 PNCs in one focus plane), and were also scored as PNC negative.

| IC50 [1] | IC50 [2] | PNC IC50(μM) [2] | Compound |
| --- | --- | --- | --- |
| 38.3 µM | 5.9 µM |  | COC(Cn1cnc2c(c(-c3ccccc3)c(-c3ccccc3)n2Cc2ccccc2)c1=N)OC |
| 9.61 µM | 0.047 µM |  | N=c1c2c(-c3ccccc3)c(-c3ccccc3)n(CCc3ccccc3)c2ncn1[C@H]1CC[C@H](O)CC1 [Compound 3] |
| 76.4 µM | 0.118 µM |  | N=c1c2c(-c3ccccc3)c(-c3ccccc3)n(Cc3ccccc3)c2ncn1CCO [Compound 4] |
| 19.2 µM | 0.187 µM |  | N=c1c2c(-c3ccccc3)c(-c3ccccc3)n(CCc3ccccc3)c2ncn1CCO [Compound 5] |
| 48.2 µM | 1.48 µM |  | COc1ccc(Cn2c(-c3ccccc3)c(-c3ccccc3)c3c(=N)n(CCO)cnc32)cc1 [Compound 6] |
| 20.4 µM | 0.628 µM |  | N=c1c2c(-c3ccccc3)c(-c3ccccc3)n(Cc3ccco3)c2ncn1CCO [Compound 7] |
| 19.2 µM | 0.148 µM |  | N=c1c2c(-c3ccccc3)c(-c3ccccc3)n(CCc3ccccc3)c2ncn1CCCO [Compound 9] |
| 64.6 µM | 3.97 µM |  | N=c1c2c(-c3ccccc3)c(-c3ccccc3)n(Cc3ccco3)c2ncn1CCCO [Compound 11] |
| 24.1 µM |  | inactive | N=c1c2c(-c3ccccc3)c(-c3ccccc3)n(Cc3ccccc3)c2ncn1CCCCO [Compound 12] |
| 15.2 µM | 0.235 µM |  | N=c1c2c(-c3ccccc3)c(-c3ccccc3)n(CCc3ccccc3)c2ncn1CCCCO [Compound 13] |
| 24.1 µM | 1.18 µM |  | COc1ccc(Cn2c(-c3ccccc3)c(-c3ccccc3)c3c(=N)n(CCCCCO)cnc32)cc1 [Compound 14] |
| 24.1 µM | 0.372 µM |  | N=c1c2c(-c3ccccc3)c(-c3ccccc3)n(Cc3ccccc3)c2ncn1CCCCCO [Compound 15] |
| 38.3 µM | 0.59 µM |  | N=c1c2c(-c3ccccc3)c(-c3ccccc3)n(CCc3ccccc3)c2ncn1CCCCCO [Compound 16] |
| 30.4 µM | 1.18 µM |  | COc1ccc(Cn2c(-c3ccccc3)c(-c3ccccc3)c3c(=N)n(CCCCO)cnc32)cc1 [Compound 17] |
| 76.4 µM |  | inactive | N=c1c2c(-c3ccccc3)c(-c3ccccc3)n(Cc3ccccc3)c2ncn1CCN [Compound 18] |
| 24.1 µM | 0.935 µM |  | CN(C)CCn1cnc2c(c(-c3ccccc3)c(-c3ccccc3)n2Cc2ccccc2)c1=N [Compound 19] |
| 96.1 µM | 0.469 µM |  | CN(C)CCn1cnc2c(c(-c3ccccc3)c(-c3ccccc3)n2CCc2ccccc2)c1=N [Compound 20] |
| 24.1 µM | 7.43 µM |  | CN(C)CCCn1cnc2c(c(-c3ccccc3)c(-c3ccccc3)n2Cc2ccccc2)c1=N [Compound 21] |
| 24.1 µM | 7.43 µM |  | CN(C)CCCn1cnc2c(c(-c3ccccc3)c(-c3ccccc3)n2CCc2ccccc2)c1=N [Compound 22] |
| 121 µM | 4.69 µM |  | N=c1c2c(-c3ccccc3)c(-c3ccccc3)n(Cc3ccccc3)c2ncn1C1CCN(Cc2ccccc2)CC1 [Compound 23] |
| 24.1 µM | 1.87 µM |  | N=c1c2c(-c3ccccc3)c(-c3ccccc3)n(CCc3ccccc3)c2ncn1C1CCN(Cc2ccccc2)CC1 [Compound 24] |
| 60.7 µM | 1.87 µM |  | COCCn1cnc2c(c(-c3ccccc3)c(-c3ccccc3)n2Cc2ccccc2)c1=N [Compound 25] |
| 60.7 µM | 3.72 µM |  | COCCn1cnc2c(c(-c3ccccc3)c(-c3ccccc3)n2CCc2ccccc2)c1=N [Compound 26] |
| 24.1 µM | 1.18 µM |  | COCCn1cnc2c(c(-c3ccccc3)c(-c3ccccc3)n2Cc2ccc(OC)cc2)c1=N [Compound 27] |
| 27.1 µM | 23.5 µM |  | COC(Cn1cnc2c(c(-c3ccccc3)c(-c3ccccc3)n2CCc2ccccc2)c1=N)OC [Compound 29] |
| 24.1 µM | 5.9 µM |  | COc1ccc(Cn2c(-c3ccccc3)c(-c3ccccc3)c3c(=N)n(CC(OC)OC)cnc32)cc1 [Compound 30] |

| IC50 [1] | IC50 [2] | PNC IC50(μM) [2] | Compound |
| --- | --- | --- | --- |
| 24.1 µM | 2.96 µM |  | CCOC(CCCn1cnc2c(c(-c3ccccc3)c(-c3ccccc3)n2Cc2ccccc2)c1=N)OCC [Compound 31] |
| 24.1 µM | 18.7 µM |  | CCOC(CCCn1cnc2c(c(-c3ccccc3)c(-c3ccccc3)n2CCc2ccccc2)c1=N)OCC [Compound 32] |
| 48.2 µM | 2.96 µM |  | CCOC(CCCn1cnc2c(c(-c3ccccc3)c(-c3ccccc3)n2Cc2ccc(OC)cc2)c1=N)OCC [Compound 33] |
| 20.4 µM | 1.25 µM |  | CCCCn1cnc2c(c(-c3ccccc3)c(-c3ccccc3)n2Cc2ccco2)c1=N [Compound 34] |
| 19.9 µM |  | Inactive | CC(C)CCn1cnc2c(c(-c3ccccc3)c(-c3ccccc3)n2Cc2ccco2)c1=N [Compound 35] |
| 25.7 µM | 1.99 µM |  | N=c1c2c(-c3ccccc3)c(-c3ccccc3)n(Cc3ccccc3)c2ncn1CCCn1ccnc1 [Compound 36] |
| 96.1 µM | 0.935 µM |  | N=c1c2c(-c3ccccc3)c(-c3ccccc3)n(Cc3ccccc3)c2ncn1CC1CCCO1 (centres unmarked) [Compound 38] |
| 48.2 µM | 4.69 µM |  | N=c1c2c(-c3ccccc3)c(-c3ccccc3)n(CCc3ccccc3)c2ncn1CC1CCCO1 (centres unmarked) [Compound 39] |
| 38.3 µM | 5.9 µM |  | COc1ccc(Cn2c(-c3ccccc3)c(-c3ccccc3)c3c(=N)n(CC4CCCO4)cnc32)cc1 (centres unmarked) [Compound 40] |
| 20.4 µM | 9.96 µM |  | N=c1c2c(-c3ccccc3)c(-c3ccccc3)n(Cc3ccco3)c2ncn1Cc1ccco1 [Compound 43] |
| 19.9 µM | 15.8 µM |  | N=c1c2c(-c3ccccc3)c(-c3ccccc3)n(Cc3ccccc3)c2ncn1Cc1ccccc1 [Compound 44] |
| 24.1 µM | 9.35 µM |  | N=c1c2c(-c3ccccc3)c(-c3ccccc3)n(Cc3ccccc3)c2ncn1Cc1ccc2c(c1)OCO2 [Compound 45] |
| 24.1 µM | 14.8 µM |  | COc1ccc(CCn2cnc3c(c(-c4ccccc4)c(-c4ccccc4)n3Cc3ccccc3)c2=N)cc1OC [Compound 46] |
| 30.4 µM | 4.69 µM |  | N=c1c2c(-c3ccccc3)c(-c3ccccc3)n(CCc3ccccc3)c2ncn1[C@H](CO)Cc1ccccc1 [Compound 48] |
| 32.4 µM |  | inactive | N=c1c2c(-c3ccccc3)c(-c3ccccc3)n(Cc3ccco3)c2ncn1CCN1CCOCC1 [Compound 50] |
| 24.1 µM | 29.6 µM |  | COC(=O)c1cccc(Cn2cnc3c(c(-c4ccccc4)c(-c4ccccc4)n3CCc3ccccc3)c2=N)c1 [Compound 53] |
| 19.2 µM | 0.009 µM |  | CO[C@H]1CC[C@H](n2cnc3c(c(-c4ccccc4)c(-c4ccccc4)n3Cc3ccccc3)c2=N)CC1 [Compound 56] |
| 96.1 µM | 0.059 µM |  | N=c1c2c(-c3ccccc3)c(-c3ccccc3)n(Cc3ccc(S(N)(=O)=O)cc3)c2ncn1C1CCOCC1 [Compound 57] |
| 24.1 µM | 0.118 µM |  | COc1ccc(Cn2c(-c3ccccc3)c(-c3ccccc3)c3c(=N)n([C@H]4CC[C@H](O)CC4)cnc32)cc1 [Compound 58] |
| 24.1 µM | 0.118 µM |  | COc1ccc(Cn2c(-c3ccccc3)c(-c3ccccc3)c3c(=N)n(C4CCOCC4)cnc32)cc1 [Compound 59] |
| 24.1 µM | 0.118 µM |  | N=c1c2c(-c3ccccc3)c(-c3ccccc3)n(CC3CCCCC3)c2ncn1C1CCOCC1 [Compound 60] |
| 24.1 µM | 0.118 µM |  | N=c1c2c(-c3ccccc3)c(-c3ccccc3)n(Cc3ccccc3)c2ncn1CCC1CCC(O)CC1 (centres unmarked) [Compound 61] |
| 24.1 µM | 0.148 µM |  | N=c1c2c(-c3ccccc3)c(-c3ccccc3)n(CCc3ccccc3)c2ncn1C[C@H]1CCCC[C@@H]1O [Compound 62] |
| 19.2 µM | 0.148 µM |  | N=c1c2c(-c3ccccc3)c(-c3ccccc3)n(Cc3ccccc3)c2ncn1C1CCCC[C@H]1O (some centres unmarked) [Compound 63] |
| 38.3 µM | 0.187 µM |  | N=c1c2c(-c3ccccc3)c(-c3ccccc3)n(CC3CC3)c2ncn1C1CCOCC1 [Compound 64] |
| 19.2 µM | 0.235 µM |  | CO[C@H]1CC[C@H](n2cnc3c(c(-c4ccccc4)c(-c4ccccc4)n3CCc3ccccc3)c2=N)CC1 [Compound 65] |
